Literature values as cited in patent US12527813B2, “Methods to stabilize and reverse atherosclerotic lesions by sulfated polysaccharides” (Calroy Health Sciences, LLC, priority 2017, dated 2026).

System: lipid-rich necrotic core
Details: 24 months

In the case of `CC(C)c1nc(N(C)S(C)(=O)=O)nc(-c2ccc(F)cc2)c1/C=C/[C@@H](O)C[C@@H](O)CC(=O)O` [rosuvastation], the “lipid-rich necrotic core reduced, low dose” value (5 mg/day) is given as 27%, the “lumen size and artery stenosis change” value is given as “virtually no change” and the “lipid-rich necrotic core reduced, all patients” value (33 patients, low or high dose) is given as “about 25%”. The “lipid-rich necrotic core reduced, high dose” value (40/80 mg/day) was 19%.
